The record followed here is patent publication US8207139B2, “Function of GPR4 in vascular inflammatory response to acidosis and related methods” (priority 2009, dated 2012).

Entries after “also recorded” stand apart in the source; their conditions may differ.

Assay [1] concerns acidosis/GPR4-induced HUVEC cell adhesion. Put plainly: HUVEC-U937 monocyte cell adhesion assay. The assay is classed as cell-based, human. The note with it: HUVEC cells treated with acidic pH, attachment of U937 monocytes as readout. As to the method: Cell adhesion assay: To examine the adhesion of HUVEC endothelial cells and to model the interaction between endothelium and immune cells, the HUVEC-U937 monocyte adhesion assay was used as a functional readout. […] In brief, HUVEC endothelial cells were cultured in a 24-well plate to form a confluent monolayer, and treated with EGM-2/HEM media at various pHs for 5 to 15 hours. After the pH treatment, HUVEC cells were washed once with DMEM medium (pH 7.4), and then U937 monocytic cells resuspended in DMEM with 10% fetal bovine serum (FBS) were added to the HUVEC monolayer to allow adhesion for 1 hour at pH 7.4. Non-adherent cells were removed by gently washing several times with DMEM medium.
Effects on HUVEC cell adhesion: HUVEC cells with GPR4 siRNA or control siRNA were treated with different pHs, and the U937-HUVEC cell adhesion assay was performed.

Assay [2] has the same test system. Briefly: HUVEC-U937 monocyte cell adhesion assay. The note with it: treatment with cAMP pathway activators, attachment of U937 monocytes as readout. It counts as cell-based, human.

On to `C[C@H]1O[C@@H](n2cnc3c(N)ncnc32)C[C@@H]1O` [2′,5′-dideoxyadenosine], for which, in assay [1], the “effect on acidosis/GPR4-induced HUVEC cell adhesion” value was “reduced; also recorded: abolishes; also recorded: diminishes”.

On to `CO[C@@H]1[C@@H]2OP(=O)(O)OC[C@H]2O[C@H]1n1c(Sc2ccc(Cl)cc2)nc2c(N)ncnc21` [8-CPT-2Me-cAMP], for which, in assay [2], the “effect on adhesion of HUVEC cells” value is reported as “increases”.

On to `O=S(=O)(NCCNC/C=C/c1ccc(Br)cc1)c1cccc2cnccc12` [H-89], for which the “effect on acidosis/GPR4-induced HUVEC cell adhesion” value in assay [1] is given as “did not affect; also recorded: does not affect”.

Consider `Nc1ncnc2c1ncn2C1CCCO1` (centres unmarked) [SQ 22536], for which the “effect on acidosis/GPR4-induced HUVEC cell adhesion” value in assay [1] is listed as “abolishes; also recorded: reduces”.

With pertussis toxin, in assay [2], the “effect on adhesion of HUVEC cells” value was “enhanced; also recorded: increases”.
